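Compound exposure: 48 hours, 5 concentrations, 96-well plates. Here, GI50 denotes the concentration required for 50% inhibition of growth.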 The source made the active and inactive calls. Rule as the data show it: active = GI50 up to about 1.1 µM and inactive = higher.
Experiments:
Experiment in all cases: NCI-60 cell line screen, 48 h
DLD-1 = system: DLD-1
SF-295 = system: SF-295
OVCAR-8 = system: OVCAR-8
COLO 205 = system: COLO 205
M14 = system: M14
HCT-15 = system: HCT-15
RXF 393 = system: RXF 393
RPMI-8226 = system: RPMI-8226
SF-268 = system: SF-268
SN12C = system: SN12C
NCI-H522 = system: NCI-H522
OVCAR-3 = system: OVCAR-3
A549 = system: A549
SF-539 = system: SF-539
CAKI-1 = system: CAKI-1
KM-20L2 = system: KM-20L2
786-0 = system: 786-0
Malme-3M = system: Malme-3M
SK-MEL-28 = system: SK-MEL-28
UO-31 = system: UO-31
OVCAR-4 = system: OVCAR-4
SK-MEL-2 = system: SK-MEL-2
SNB-19 = system: SNB-19
SNB-75 = system: SNB-75
EKVX = system: EKVX
HCT-116 = system: HCT-116
NCI-H23 = system: NCI-H23
HL-60 = system: HL-60
NCI-H460 = system: NCI-H460
HCC 2998 = system: HCC 2998
IGROV-1 = system: IGROV-1
UACC-257 = system: UACC-257
LXFL 529 = system: LXFL 529
HOP-92 = system: HOP-92
A498 = system: A498
MOLT-4 = system: MOLT-4
HT-29 = system: HT-29
SK-MEL-5 = system: SK-MEL-5
HOP-18 = system: HOP-18
M19-MEL = system: M19-MEL
LOX IMVI = system: LOX IMVI
DMS-273 = system: DMS-273
SW-620 = system: SW-620
ACHN = system: ACHN
CCRF-CEM = system: CCRF-CEM
K562 = system: K562
OVCAR-5 = system: OVCAR-5
U-251 = system: U-251
SK-OV-3 = system: SK-OV-3
HOP-62 = system: HOP-62
XF498 = system: XF498
NCI-H226 = system: NCI-H226
RXF 631 = system: RXF 631
KM12 = system: KM12
TK-10 = system: TK-10
SR = system: SR
SNB-78 = system: SNB-78
UACC-62 = system: UACC-62
DMS-114 = system: DMS-114

Compound: CCN(CC)CCOc1ccc(C(=C2CCCCC2)c2ccc(OCCN(CC)CC)cc2)cc1
- GI50 (DLD-1): 1930 nM (inactive)
- GI50 (SF-295): 1850 nM (inactive)
- GI50 (OVCAR-8): 1730 nM (inactive)
- GI50 (COLO 205): 1340 nM (inactive)
- GI50 (M14): 1550 nM (inactive)
- GI50 (HCT-15): 1540 nM
- GI50 (RXF 393): 1590 nM (inactive)
- GI50 (RPMI-8226): 700 nM (active)
- GI50 (SF-268): 1680 nM (inactive)
- GI50 (SN12C): 1660 nM (inactive)
- GI50 (NCI-H522): 1760 nM (inactive)
- GI50 (OVCAR-3): 1720 nM (inactive)
- GI50 (A549): 1620 nM (inactive)
- GI50 (SF-539): 1550 nM (inactive)
- GI50 (CAKI-1): 1960 nM (inactive)
- GI50 (KM-20L2): 1270 nM (inactive)
- GI50 (786-0): 1390 nM (inactive)
- GI50 (Malme-3M): 1720 nM (inactive)
- GI50 (SK-MEL-28): 1320 nM (inactive)
- GI50 (UO-31): 1590 nM (inactive)
- GI50 (OVCAR-4): 2310 nM (inactive)
- GI50 (SK-MEL-2): 1930 nM (inactive)
- GI50 (SNB-19): 1730 nM (inactive)
- GI50 (SNB-75): 1450 nM (inactive)
- GI50 (EKVX): 1740 nM (inactive)
- GI50 (HCT-116): 1250 nM (inactive)
- GI50 (NCI-H23): 1860 nM (inactive)
- GI50 (HL-60): 299 nM (active)
- GI50 (NCI-H460): 1470 nM (inactive)
- GI50 (HCC 2998): 1300 nM (inactive)
- GI50 (IGROV-1): 1710 nM (inactive)
- GI50 (UACC-257): 1870 nM (inactive)
- GI50 (LXFL 529): 1690 nM (inactive)
- GI50 (HOP-92): 2020 nM (inactive)
- GI50 (A498): 1780 nM (inactive)
- GI50 (MOLT-4): 612 nM (active)
- GI50 (HT-29): 1100 nM (active)
- GI50 (SK-MEL-5): 1580 nM (inactive)
- GI50 (HOP-18): 2890 nM (inactive)
- GI50 (M19-MEL): 1710 nM (inactive)
- GI50 (LOX IMVI): 1230 nM (inactive)
- GI50 (DMS-273): 1520 nM (inactive)
- GI50 (SW-620): 1250 nM (inactive)
- GI50 (ACHN): 1750 nM (inactive)
- GI50 (CCRF-CEM): 931 nM (active)
- GI50 (K562): 267 nM (active)
- GI50 (OVCAR-5): 1790 nM (inactive)
- GI50 (U-251): 1640 nM (inactive)
- GI50 (SK-OV-3): 1870 nM (inactive)
- GI50 (HOP-62): 1770 nM (inactive)
- GI50 (XF498): 1070 nM (active)
- GI50 (NCI-H226): 2150 nM (inactive)
- GI50 (RXF 631): 1460 nM (inactive)
- GI50 (KM12): 1270 nM (inactive)
- GI50 (TK-10): 1500 nM (inactive)

Compound: CN1CC(=O)N(C)c2[nH]cnc2C1=O
- GI50 (DLD-1): > 100000 nM (inactive)
- GI50 (SF-295): > 100000 nM (inactive)
- GI50 (OVCAR-8): > 100000 nM (inactive)
- GI50 (COLO 205): > 100000 nM (inactive)
- GI50 (M14): > 100000 nM (inactive)
- GI50 (HCT-15): > 100000 nM
- GI50 (RXF 393): > 100000 nM (inactive)
- GI50 (RPMI-8226): > 100000 nM (inactive)
- GI50 (SR): > 100000 nM (inactive)
- GI50 (SF-268): > 100000 nM (inactive)
- GI50 (SNB-78): > 100000 nM (inactive)
- GI50 (SN12C): > 100000 nM (inactive)
- GI50 (OVCAR-3): > 100000 nM (inactive)
- GI50 (A549): > 100000 nM (inactive)
- GI50 (SF-539): > 100000 nM (inactive)
- GI50 (786-0): > 100000 nM (inactive)
- GI50 (Malme-3M): > 100000 nM (inactive)
- GI50 (SK-MEL-28): > 100000 nM (inactive)
- GI50 (UO-31): > 100000 nM (inactive)
- GI50 (OVCAR-4): > 100000 nM (inactive)
- GI50 (SNB-19): > 100000 nM (inactive)
- GI50 (SNB-75): > 100000 nM (inactive)
- GI50 (EKVX): > 100000 nM (inactive)
- GI50 (NCI-H23): > 100000 nM (inactive)
- GI50 (HL-60): > 100000 nM (inactive)
- GI50 (UACC-62): > 100000 nM (inactive)
- GI50 (NCI-H460): > 100000 nM (inactive)
- GI50 (HCC 2998): > 100000 nM (inactive)
- GI50 (IGROV-1): > 100000 nM (inactive)
- GI50 (LXFL 529): > 100000 nM (inactive)
- GI50 (A498): > 100000 nM (inactive)
- GI50 (MOLT-4): > 100000 nM (inactive)
- GI50 (HT-29): > 100000 nM (inactive)
- GI50 (SK-MEL-5): > 100000 nM (inactive)
- GI50 (HOP-18): > 100000 nM (inactive)
- GI50 (M19-MEL): > 100000 nM (inactive)
- GI50 (LOX IMVI): > 100000 nM (inactive)
- GI50 (DMS-273): > 100000 nM (inactive)
- GI50 (SW-620): > 100000 nM (inactive)
- GI50 (ACHN): > 100000 nM (inactive)
- GI50 (DMS-114): > 100000 nM (inactive)
- GI50 (CCRF-CEM): > 100000 nM (inactive)
- GI50 (K562): > 100000 nM (inactive)
- GI50 (OVCAR-5): > 100000 nM (inactive)
- GI50 (U-251): > 100000 nM (inactive)
- GI50 (SK-OV-3): > 100000 nM (inactive)
- GI50 (XF498): 80900 nM (inactive)
- GI50 (NCI-H226): > 100000 nM (inactive)
- GI50 (RXF 631): > 100000 nM (inactive)
- GI50 (KM12): > 100000 nM (inactive)
- GI50 (TK-10): > 100000 nM (inactive)

Reference: ChEMBL document CHEMBL1201862, “PubChem BioAssay data set” (2004)
